Reference: article PMC4210147, “Sequence-Specific Dimerization of a Transmembrane Helix in Amphipol A8-35” (PLoS ONE, 2014)
pKd: −log10 of the molar value.

Experiments:
[1] = biological target: T1, human GpA TM domain (Homo sapiens, UniProt P02724); test: Reversibility of SDS-mediated GpA dimer dissociation, FRET after dilution of SDS; assay type: binding; settings: n = 3
T1 construct: purchased Peptide Specialty Laboratories, Heidelberg, Germany; host or cells: chemical synthesis (custom peptide)
T1 sequence (P02724 88-120 limits assumed) 1: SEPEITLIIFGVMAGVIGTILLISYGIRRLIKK
T1 sequence (P02724 88-120 limits assumed) 2: T1 sequence (P02724 88-120 limits assumed) 1
Experimental: For Förster resonance energy transfer (FRET) measurements, equal concentrations of FL- and TAMRA-labeled GpA TM domains were used. Concentrations of the peptide stock solutions were determined from absorbance measurements on a Perkin Elmer Lambda 35 UV/VIS spectrophotometer. In all experiments, we used 0.25 µM for each of the two labeled GpA peptides. Peptides dissolved in TFE and A8-35 dissolved in ethanol were mixed, and organic solvents were removed under a gentle stream of nitrogen gas. Residual solvent traces were removed by vacuum desiccation overnight. The dried peptide/polymer film was then hydrated in 10 mM HEPES buffer (pH 7.4) containing 150 mM NaCl.
After at least 2 h of incubation at 37°C and 10 min of centrifugation at 16,000 g, steady-state fluorescence measurements were performed with the supernatant at 25°C on a Horiba Fluoromax 4 system with both excitation and emission slits at 3 nm. The excitation wavelength was set at 439 nm, and emission spectra were recorded from 480 to 650 nm. For FRET measurements with SDS, several concentrations of SDS, both below and above the CMC determined for the given buffer conditions, were used, and hydrated samples were incubated overnight. […]

[2] = tested on: GpA TM dimer; settings: SDS, DDMAB, DPC, lyso-PC, ref [26]-[28], cited from earlier work

Structure (SMILES): CC[C@H](C)[C@H](NC(=O)CNC(=O)[C@H](Cc1ccc(O)cc1)NC(=O)[C@H](CO)NC(=O)[C@@H](NC(=O)[C@H](CC(C)C)NC(=O)[C@H](CC(C)C)NC(=O)[C@@H](NC(=O)[C@@H](NC(=O)CNC(=O)[C@@H](NC(=O)[C@@H](NC(=O)CNC(=O)[C@H](C)NC(=O)[C@H](CCSC)NC(=O)[C@@H](NC(=O)CNC(=O)[C@H](Cc1ccccc1)NC(=O)[C@@H](NC(=O)[C@@H](NC(=O)[C@H](CC(C)C)NC(=O)[C@@H](NC(=O)[C@@H](NC(=O)[C@H](CCC(=O)O)NC(=O)[C@@H]1CCCN1C(=O)[C@H](CCC(=O)O)NC(=O)[C@@H](N)CO)[C@@H](C)CC)[C@@H](C)O)[C@@H](C)CC)[C@@H](C)CC)C(C)C)C(C)C)[C@@H](C)CC)[C@@H](C)O)[C@@H](C)CC)[C@@H](C)CC)C(=O)N[C@@H](CCCNC(=N)N)C(=O)N[C@@H](CCCNC(=N)N)C(=O)N[C@@H](CC(C)C)C(=O)N[C@H](C(=O)N[C@@H](CCCCN)C(=O)N[C@@H](CCCCN)C(=O)O)[C@@H](C)CC [GpA TM domain]
- reversibility of dissociation and association of GpA TM helix ([1]; 2 mM SDS diluted to 0.4 mM SDS, constant 20 µM A8-35 and peptide): fully reversible
- fraction dimer after dilution from higher SDS concentration ([1]; 2 mM SDS sample diluted to 0.4 mM SDS, 20 µM A8-35): comparable to that observed at 0.4 mM SDS
- dissociation constants of the GpA TM dimer upon further addition of detergent ([2]; compared to A8-35): increase significantly
- pKd ([2]; read-out: dissociation constants of the GpA TM dimer in detergents, low detergent concentrations): ≥ 6.30
